Like-named read-outs stand apart in the source and are kept apart here.
Key:
INS-1 cells [1] = test: Glucose-galactose cytotoxicity assay (MTT); conditions: for IC50: Rattus norvegicus, INS1, 48 h
Procedure: Sub-culturing was in ratio 4:3. Cell density was 15,000 cells/well and treated with 200 µL of the test solution that was solubilized in glucose-free RPMI medium supplemented with 5 mM glucose or 5 mM galactose. The cells were incubated further for 48 h. The spent medium was replaced with 100 µL glucose in RPMI medium. 2,4-dinitrophenol served as positive control. The cells were finally loaded with MTT as in section “Cell viability assay” but incubation took 120 min.

[2] = Cell viability assay (MTT); type: cell-based; conditions: rat
Procedure: INS-1 cells were routinely grown at 5% CO2, 95% air at 37 °C in RPMI-1640 containing 11.1 mM glucose and supplemented with 10% foetal calf serum (FCS), 1 mM pyruvate, 10 mM 4-(2-hydroxyethyl)-1-piperazine ethane sulphonic acid (HEPES), 50 µM 2-mercaptoethanol, 100 U penicillin/mL and 100 µg streptomycin/mL. Sub-confluent cultures were trypsinized to dislodge the cells and sub-cultured at a ratio of 1:3 or 1:0.75 in other experiments. INS-1 cells were seeded into a 96-well plate at densities of 10 000, 15 000 or 30,000 cells/well. They were allowed to attach at 37 °C overnight.
The cells were incubated for 48 h with test compounds containing 20 µM or 30 µM 4-tOP and 8 µM or 12.5 µM TCS. Combination treatments (4-tOP + TCS) were 12.5 µM or 25 µM at 1:1 ratio.
Cell viability was assessed by a principle of enzymatic reduction of 3-[4, 5-dimethylthiazole-2-yl]-2, 5-diphenyltetrazolium bromide (MTT) to formazan. The treated cells respectively were loaded with 20 µL 0.5 mg/mL MTT and incubated at 37 °C for 3 h. […] The absorbance of the purple-coloured formazan was measured at 540 nm on microplate reader. IC50, (the median inhibitory concentration) was calculated with GraphPad Prism software. Data were expressed as a percentage of control.
Results were expressed as means ± SD from at least three replicate measurements. The difference between means was analyzed with ANOVA, α value = 0.05. […]

INS-1 cells [3] = test: Glucose uptake assay (glucose oxidase); type: cell-based, rat; conditions: Table 3 summary, low and high concentration, 48 h
Procedure: Glucose uptake was determined in INS-1 cells by monitoring the levels of glucose remaining in the culture medium after a selected treatment period. The cell density was 30 000 per well; one row was without cells to serve as maximum glucose content. Spent medium was removed and the cells were treated with 100 µL of the test compounds at concentrations indicated in section “Treatment of INS-1 cells”. The cells were incubated for a further 48 h and 5µL spent culture medium was thereafter transferred to a new plate of 96 wells and 200 µL glucose oxidase reagent added. Incubation was at 37 °C for 20 min and absorbance was read at 520 nm. Glucose uptake was obtained as the difference in glucose concentration between wells without cells and those with cells and respective treatments.

INS-1 cells [4] = test: Oxidative stress: ROS by CellROX orange staining; type: cell-based, rat; conditions: Table 3 summary, low and high concentration, 48 h
Procedure: (§1) The spent medium in section “Treatment of INS-1 cells” was removed and 50 µL CellROX staining solution was added to each well according to the manufacturer’s instructions and incubated at 37 °C for 30 min. Images from nine sites per well were acquired using filter sets appropriate for DAPI (4′, 6-diamidino-2-phenylindole) and TRITC (tetramethylrhodamine-isothiocyanate) which were the fluorophors. Image acquisition was done on ImageXpress Micro XLS and analyzed using the Multi-Wavelength Scoring software (Molecular Devices). In another experiment 50 µL ThiolTracker Violet staining solution was put in each well and incubated at 37 °C for 20 min. Images from nine sites per well were acquired using filter sets appropriate for DAPI and CY5 (amine reactive fluorescent dye). Image acquisition and data analysis were as done for the CellROX orange reagent. Excitation/Emission wavelength was at 545/565 nm.

INS-1 cells [5] = test: Oxidative stress: reduced glutathione by ThiolTracker Violet staining; type: cell-based, rat; conditions: 48 h; for Glutathione levels (oxidative stress summary): Table 3 summary, low and high concentration
Procedure: as §1

INS-1 cells [6] = type: cell-based, rat; conditions: for Annexin PI: mode of cell death (summary): Table 3 summary
Procedure: The treated cells were sub-cultured at 4:3. Annexin V-FITC staining assay was performed as recommended by the manufacturer. Melphalan (Mel) and Etoposide (Etop) served as the positive controls. Incubation lasted 48 h. The spent medium was removed and 50 µL PI staining solution was in each well and incubated for 15 min at 37 °C followed by image acquisition and data analysis as in previous experiments. Images from nine sites per well were acquired using filter sets appropriate for DAPI, FITC and Texas red dyes.

[7] = system: caspase 3 activation in INS-1 cells; test: Caspase-3 activation assay; type: cell-based, rat; conditions: 48 h
Procedure: Additional 100 µL test compounds were solubilized in the medium and incubated for 48 h. The spent medium was replaced with 100 µL of fix solution (4% formaldehyde in phosphate-buffered saline (PBS) and was fixed overnight; the cells were permeabilized with ice cold methanol, then washed with PBS and blocked using 1% BSA followed by incubation with the primary antibody at 1:200 dilution in blocking buffer for 2 h. The excess antibody was removed by washing with blocking buffer. Incubation was thereafter carried out with secondary antibody (FITC labelled) for 30 min and later washed with blocking buffer to remove excess antibody. Images from nine sites per well were acquired using filter sets appropriate for DAPI and FITC. Image analysis was done as in previous experiments.

INS-1 cells [8] = test: Mitochondrial mass (MitoTracker Green staining); type: cell-based, rat; conditions: 48 h; for Mitochondrial mass (summary): Table 3 summary, all concentrations
Procedure: Staining solution consisted of 10 mL of PBS to which was added 1 µL MitoTracker Green (MTG) stock (1 mM in DMSO) and 2 µL Hoechst solution (10 mg/mL in DMSO). Spent medium was removed and 50 µL staining solution added to each well (96 wells) followed by incubation at 37 °C for 20 min.

INS-1 cells [9] = test: Glucose stimulated calcium influx (Fluo-4); type: cell-based, rat; conditions: 20 mM glucose stimulation; for Intracellular calcium levels (summary): Table 3 summary, 24 h incubation; for Glucose stimulated intracellular calcium flux compared with the Blank: positive controls
Procedure: Fluo-4 dye is specific for intracellular Ca^2+ concentration. On binding calcium, the green fluorescence intensity increases by more than 100 folds (excitation/emission 494/[…]). Incubation was for 24 h. Staining solution was prepared by adding 20 µL Flou-4 stock solution (1 mM in DMSO) and 2 µL Hoechst solution to 10 mL of PBS. After staining, incubation was done for 30 min at 37 °C. The stain solution was removed and replaced with 50 µL PBS. Incubation was further carried out at room temperature for 20 min. Difference in fluorescence intensity between wells containing glucose and those without glucose represents calcium influx in response to glucose. Just prior to image acquisition, 20 mM glucose was added to four of the eight replicate wells and incubated at room temperature for 10 min. Image acquisition and data analyses were done as usual. Filter sets appropriate for DAPI and FITC were also used. Diazoxide and Glibenclamide were used as the positive controls.

INS-1 cells [10] = system: INS-1 cells
Procedure: (§2) TMRE is a cell permeable cationic dye that accumulates in the mitochondrial matrix according to mitochondrial membrane potential (ΔψM). Staining solution was prepared by adding 5 mL PBS, 50 µL TMRE working solution and 2 µL Hoechst 33342 solution to 5 mL of RPMI. The spent medium was removed and 50 µL staining solution was put in each well and incubated for 30 min at 37 °C. Image acquisition and data analysis were done as indicated.

INS-1 cells [11] = test: Mitochondrial membrane potential (TMRE staining); conditions: 48 h
Procedure: as §2

HepG2 human liver cells = system: HepG2 human liver cells; set-up: method as in PMID 27459410; conditions: cited from earlier work
[12] = set-up: method as in PMID 9894786; conditions: Ca2+-dependent binding to phosphatidylserine; cited from earlier work
[13] = high concentration (12.5 µM TCS, 30 µM 4-tOP, 25 µM Mix), 48 h
[14] = low concentration (8 µM TCS, 20 µM 4-tOP, 12.5 µM Mix), 48 h

O=[N+]([O-])c1ccc(O)c([N+](=O)[O-])c1 [2,4-Dinitrophenol, 2,4-dinitrophenol, reference compound]
IC50 (INS-1 cells [1]; read-out: IC50 Galactose): 24.5 µM
IC50 (INS-1 cells [1]; read-out: IC50 Glucose): 46 µM

CC(C)(C)CC(C)(C)c1ccc(O)cc1 [4-tert-Octylphenol]
IC50 at 48 h [2]: 32.5 µM
IC50 (INS-1 cells [1]; read-out: IC50 Galactose): 34.5 µM
IC50 (INS-1 cells [1]; read-out: IC50 Glucose): 33.4 µM
Glucose-galactose differential cytotoxicity (summary) (INS-1 cells [1]; rat, 48 h): Higher IC50 in galactose than in glucose
Glucose uptake (summary) (INS-1 cells [3]): Consumption pattern as with T. No significant change in glucose consumption
ROS (oxidative stress summary) (INS-1 cells [4]): Dose dependent increase in ROS but variation high hampering statistical significance
Glutathione levels (oxidative stress summary) (INS-1 cells [5]): Decrease glutathione levels corroborated ROS production
Induction of apoptosis compared with the Blank (INS-1 cells [6]; 20 µM or 30 µM, 48 h): failed to significantly induce apoptosis
Annexin PI: mode of cell death (summary) (INS-1 cells [6]): Cell death by 4-tOP was by necrosis
Proportion of live cells (INS-1 cells [6]; [13]): 73.8%
Cell death by necrosis compared with the Blank (INS-1 cells [6]; high concentration (30 µM 4-tOP), 48 h): significantly underwent necrosis
Proportion of live cells (INS-1 cells [6]; [14]): 81.4%
Caspase 3 activation compared with the Blank ([7]; test substances): Increase in caspase 3 activation not substantial
Mitochondrial mass (summary) (INS-1 cells [8]): No substantial change in mitochondrial content at all concentrations relative to the untreated cells
Intracellular calcium levels (summary) (INS-1 cells [9]): No significant changes in glucose stimulated intracellular calcium levels
Mitochondrial membrane potential MMP (summary) (INS-1 cells [10]): The increase in MMP was not substantial

CC1=NS(=O)(=O)c2cc(Cl)ccc2N1 [Diazoxide, reference compound]
Glucose stimulated intracellular calcium flux compared with the Blank (INS-1 cells [9]): significantly increased intracellular calcium flux

COc1cc([C@@H]2c3cc4c(cc3[C@@H](O[C@@H]3O[C@@H]5CO[C@@H](C)O[C@H]5[C@H](O)[C@H]3O)[C@H]3COC(=O)[C@H]23)OCO4)cc(OC)c1O [Etoposide, reference compound]
GSH compared with the Blank (INS-1 cells [5]; positive control 40 µM): significant reduction of GSH
Proportion of cells died by apoptosis (INS-1 cells [6]; positive control 40 µM, 48 h): 17.4%
Proportion of live cells (INS-1 cells [6]; positive control 40 µM, 48 h): 42.5%
Caspase 3 activation compared with the Blank ([7]; positive control 40 µM): significant increases in caspase 3 activation

COc1ccc(Cl)cc1C(=O)NCCc1ccc(S(=O)(=O)NC(=O)NC2CCCCC2)cc1 [Glibenclamide, reference compound]
Glucose stimulated intracellular calcium flux compared with the Blank (INS-1 cells [9]): significantly increased intracellular calcium flux

N[C@@H](Cc1ccc(N(CCCl)CCCl)cc1)C(=O)O [Melphalan, reference compound]
GSH compared with the Blank (INS-1 cells [5]; positive control 40 µM): significant reduction of GSH
Proportion of cells died by apoptosis (INS-1 cells [6]; positive control 40 µM, 48 h): 15.7%
Proportion of live cells (INS-1 cells [6]; positive control 40 µM, 48 h): 34.5%
Mitochondrial mass relative to the Blank (INS-1 cells [8]; positive control 40 µM): significantly increased mitochondrial mass
Mitochondrial membrane potential ΔΨM (MMP) compared to the Blank (INS-1 cells [11]; positive control 40 µM): Significant loss of mitochondrial membrane potential

Oc1cc(Cl)ccc1Oc1ccc(Cl)cc1Cl [Triclosan]
IC50 at 48 h ([2]; INS-1 cells, MTT, 48 h, read-out: IC50 for cytotoxicity against INS-1 cells): 12.7 µM
IC50 (INS-1 cells [1]; read-out: IC50 Galactose): 8.23 µM
IC50 (INS-1 cells [1]; read-out: IC50 Glucose): 11.7 µM
Glucose-galactose differential cytotoxicity (summary) (INS-1 cells [1]; Table 3 summary): Increased cytotoxicity in galactose medium indicative of potential mitochondrial toxicity
Glucose uptake (summary) (INS-1 cells [3]): Decreased glucose consumption at high concentration, increase at low concentration but not substantial compared with Blank
ROS (oxidative stress summary) (INS-1 cells [4]): Dose dependent increase in ROS but variation high hampering statistical significance
Glutathione levels (oxidative stress summary) (INS-1 cells [5]): Decreased glutathione levels corroborated ROS production
GSH compared with the Blank (INS-1 cells [5]; high concentration (12.5 µM TCS)): significant reduction of GSH
Annexin PI: mode of cell death (summary) (INS-1 cells [6]): TCS induced cell death by apoptosis
Proportion of cells died by apoptosis (INS-1 cells [6]; high concentration (12.5 µM TCS, 25 µM Mix), 48 h): 16.6%
Proportion of live cells (INS-1 cells [6]; [13]): 43.7%
Proportion of live cells (INS-1 cells [6]; [14]): 81.2%
Caspase 3 activation compared with the Blank ([7]; test substances): Increase in caspase 3 activation not substantial
Mitochondrial mass (summary) (INS-1 cells [8]): No substantial change in mitochondrial content at all the concentrations relative to the untreated cells
Intracellular calcium levels (summary) (INS-1 cells [9]): The reduction in glucose stimulated intracellular calcium flux was not substantial
IC50 (HepG2 human liver cells): 24.5 µM
Mitochondrial membrane potential MMP (summary) (INS-1 cells [11]; Table 3 summary): Significant decrease in MMP at the high concentration. only
Mitochondrial membrane potential ΔΨM (MMP) compared to the Blank (INS-1 cells [11]; high concentration (12.5 µM TCS, 25 µM Mix)): Significant loss of mitochondrial membrane potential

Annexin V: 35 kDa Ca2+-dependent phospholipid binding protein used to detect phosphatidylserine
Kd [12]: 0.007 µM

— PMC9684134, “In vitro biochemical assessment of mixture effects of two endocrine disruptors on INS-1 cells” (Scientific Reports, 2022)
